The record followed here is BindingDB's records for doi:10.1021/jm00018a023 (Upjohn, 1995).

In the experiment the target is T1, Dimer of Gag-Pol polyprotein [489-587] (Human immunodeficiency virus 1, UniProt P12497).
T1 construct: 489-587
Put plainly: Protease Inhibition Assay. As to conditions: pH 5; 22 °C. From the text: HIV-1 protease was purified and refolded from E. coli inclusion bodies. The substrate used spans the p17-p24 processing site (R-V-S-Q-N-Y-P-I-V-Q-N-K) and was derivatized with biotin and fluorescein isothiocyanate (FITC) at the amino and carboxy termini. In the presence of HIV-l protease, the substrate is rapidly cleaved into two parts. The biotinylated amino terminal fragment binds to the avidin beads while the FITC-containing carboxy1 terminal fragment is removed through the membrane. […] The bound fluorescence is obtained by processing on an IDEXX Screen Machine. Determination of Ki values with this assay requires analysis under conditions in which substrate concentration resides substantially below Km and the inhibitor concentrations greatly exceeds the Ki value and the enzyme concentration.
The Ki is a dissociation constant, usually derived from enzyme kinetics or from competition with a known ligand. Higher therefore signals weaker binding. Compound `CCC(c1cccc(C(=O)N[C@H](C(=O)NCc2ccccn2)C(C)CC)c1)c1c(O)c2ccccc2oc1=O` (some centres undefined) [3-[1-(4-Hydroxy-2-oxo-2H-1-benzopyran-3-yl)propyl]-N-[2-methyl-1-[[(2-pyridinylmethyl)amino]carbonyl]butyl]benzamide] came in with a Ki of 400 nM. The value for `CCC(c1cccc(NC(=O)CCNC(=O)OC(C)(C)C)c1)c1c(O)c2ccc(OC)cc2oc1=O` (centres undefined) [4-Hydroxy-3-[1-3-[[3-[(tert-butyloxycarbonyl)amino]-1-oxopropyl]amino]phenyl]propyl]-7-methoxycoumarin] was 170 nM; that for `CCC(c1cccc(C(=O)NCc2nc3ccccc3[nH]2)c1)c1c(O)c2ccccc2oc1=O` (centres undefined) [N-(1H-1,3-benzodiazol-2-ylmethyl)-3-[1-(4-hydroxy-2-oxo-2H-chromen-3-yl)propyl]benzamide] was 4400 nM; that for `CC(C)(C)OC(=O)NCCC(=O)Nc1cccc(C(c2c(O)c3ccccc3oc2=O)C2CC2)c1` (centres undefined) [tert-butyl N-[2-({3-[cyclopropyl(4-hydroxy-2-oxo-2H-chromen-3-yl)methyl]phenyl}carbamoyl)ethyl]carbamate] was 86 nM.
